Patent US9109048B2, “Inhibition of tumor growth” (priority 1998, dated 2015)
In brackets after ≈: the same amount, converted by molar mass. Several values for one entry are separate records, joined by “and”; a condition that tells them apart may be missing. Equal values may be shown once. Read-outs that look alike come from different tables or passages of the source. Square brackets hold non-standard residues; d marks the D form. Ends that are not written are not given here. Peptide text beside a SMILES is read from it.

Tests used:
[1] = system: Escherichia coli ATCC 25922; experiment: MIC (minimum inhibitory concentration) test, microdilution; assay type: cell-based
Method: (§1) The bacterial strains used were: Escherichia coli ATCC 25922 and Staphylococcus aureus ATCC 25923. All strains were stored at −70° C. The bacteria were grown in 2% Bacto Peptone water (Difco 1807-17-4). All tests were performed with bacteria in mid-logarithmic growth phase. Determination of the minimum inhibitory concentration (MIC) of the peptides for bacterial strains were performed in 1% Bacto Peptone water. A standard microdilution technique with an inoculum of 2×10^6 CFU/ml was used. All assays were performed in triplets. Since the peptides are positively charged and therefore could adhere to the plastic wells, we controlled the actual concentration of the peptides in the solution by HPLC. There was no difference between the concentration of the peptides before or after adding the solution to the plastic wells.

[2] = system: Staphylococcus aureus ATCC 25923; experiment: as above; assay type: cell-based
Method: as §1

[3] = system: MRSA (methicillin resistant S. aureus); assay type: cell-based
Method: as §1
Table 15 below gives the antibacterial activity and toxicity data for some preferred peptides of the invention. MRSA is methicillin resistant S. aureus and MRSE is methicilin resistant S. epidermidis.

[4] = system: Meth A cells (murine sarcoma cell line); experiment: Cytotoxicity on Meth A cells, MTT method; details: for Meth A IC 50: 4 h
Method: Peptide solutions (0.1 ml) were added and the plates incubated at 37° C. for 30 minutes, 4 hours or 24 hours. The cytotoxicity was measured using the MTT method (Mosmann et al., J. Immunol. (1986) 136, 2348-2357).
Cells in the growth phase were harvested and washed in fresh medium and injected subcutaneously into the abdominal region of the mice.
The cytotoxic effect of the peptides on different murine and human tumor cells were measured using the MTT method (Mosmann et al., J. Immunol. (1986) 136, 2348-2357).
MTT is a soluble tetrazolium salt yielding a yellow solution when prepared in media or salt solutions lacking phenol red. Dissolved MTT is converted to an insoluble purple formazan by cleavage of the tetrazolium ring by dehydrogenase enzymes. This water insoluble formazan can be solubilized using isopropanol or other solvents and the dissolved material is measured spectrophotometrically. The absorbance was measured as a function of concentration of converted dye.
Cells were maintained in […] medium containing 10% FBS, 1% L-glutamine and 0.1% penicillin and streptomycin. Cells to be used in the assay were grown to confluency, trypsinated and split to single cell suspension, counted and centrifuged at 1500 rpm for 10 min. […][…] of cell suspension was transferred to each well on a 96-well microtiter plate. The cells were stimulated by adding […] of various concentrations of peptides diluted with assay medium to each well. The final concentrations of peptide were for example: 5, 10, 20, 40, 60, 80, 100, and 200 mg/ml. […] As a negative control only medium was added to the cells, and as a positive control (100% killing) 1% triton X-100 was added. Following an incubation period of 4 h., 20 ml MTT dissolved in PBS at a concentration of 5 mg/ml was added to each well, and the plate was incubated further for 2 h. 130 ml of the supernatant were then removed and […] acid alcohol (0.04-0.1 N HCl in isopropanol) added to each well to dissolve the dark blue crystals. The plate was placed on a shaker for 1 h and read spectrophotometrically at 590 nm in a microtiterplate reader using the Softmaxâ program.

human red blood cells = experiment: Hemolytic assay; assay type: cell-based; details: red cells of human
Method: The hemolytic activities of the peptides were determined using fresh human red blood cells. 8 ml blood was taken from a healthy person. 4 ml blood was transferred to a polycarbonate tube containing heparin to a final concentration of 10 U/ml, and the remaining 4 ml blood was transferred to a glass tube containing EDTA with final concentration of 15% EDTA. The erythrocytes were isolated from heparin-treated blood by centrifugation in 1500 rpm for 10 min and washed three times with phosphate-buffered saline (PBS) to remove plasma and buffy coat. The cell pellet was resuspended in PBS to make the final volume of 4 ml. The peptide was diluted to a concentration of 2 mg/ml and 0.1 mg/ml. The peptide was further diluted to the concentrations as stated in Table 1. For each tube PBS was added first, then RBCs and peptide solutions. The hematocrit in the blood treated with EDTA was determined after 30 min with Sysmex K-1000, and the resuspended RBCs were diluted into 10% hematocrit. RBCs in PBS (1%) with and without peptides (Table 18) were incubated in a shaker at 37° for 1 hour and then centrifuged at 4000 rpm for 5 min. The supernatant were carefully transferred to new polycarbonate tubes and the absorbance of the supernatant was measured at 540 nm. Baseline hemolysis was hemoglobin released in the presence of PBS, and 100% hemolysis was hemoglobin released in the presence of 0.1% Triton X-100.

| Molecule | MIC E. coli ([1]; Table 15) | MIC S. aureus ([2]; Table 15) | MIC E. coli ([1]; ATCC 25922) | MIC S. aureus ([2]; ATCC 25923) | Meth A IC 50 [4] [µg/mL] | further results |
| --- | --- | --- | --- | --- | --- | --- |
| YRWWRWARRW-NH2 [LFM 17-26 A7R2,8,9W3,4, 10Y1NH2] | 10.0 µg/mL | 1.0 µg/mL | – | – | – | MIC E. coli ([1]; Table 12): 10 µg/mL; MIC MRSA ([3]; Table 15): 2.5 µg/mL |
| KVALKWLKVALKALKVALKAL-NH2 (C-terminus assumed) [MSI 20 W6] | – | – | – | – | 22 | – |
| KMASKAWKIAGKIAKVALKAL-NH2 (C-terminus assumed) [MSI 24 W7] | – | – | 5 µg/mL | 5 µg/mL | 26 | – |
| Linear LFB (17-41) modified with Pmc: Linear LFB (17-41) modified with Pmc (FKCRRWQWRMKKLGAPSITCVRRAF; cysteine pairing not given here; also: modified with Pmc group, site not given here; UniProt P24627 36-60, looked up, fragment) | – | – | – | – | – | cytotoxic effect on Meth A cells compared with another peptide [4]: slightly more effective than Pmc modified LFB 17-31 |
| CSCC[C@H](NC(=O)[C@H](CCCNC(=N)N)NC(=O)[C@H](Cc1ccc(-c2ccccc2)cc1)NC(=O)[C@H](CCC(N)=O)NC(=O)[C@H](Cc1c(S(=O)(=O)c2c(C)c(C)c3c(c2C)CCC(C)(C)O3)[nH]c2ccccc12)NC(=O)[C@H](CCCNC(=N)N)NC(=O)[C@H](CCCNC(=N)N)NC(=O)[C@H](CSCNC(C)=O)NC(=O)[C@H](CCCCN)NC(=O)[C@@H](N)Cc1ccccc1)C(=O)N[C@@H](CCCCN)C(=O)N[C@@H](CCCCN)C(=O)N[C@@H](CC(C)C)C(=O)NCC(=O)N[C@@H](C)C(=O)O [LFB Bip8 PMC] | 15.0 μg/ml and 6.3 μM | 2.5 μg/ml and 1.1 μM | – | – | – | MIC E. coli ([1]; Table 9): 25 µg/mL; MIC S. aureus ([2]; Table 9): 5 µg/mL; MIC MRSA ([3]; Table 15): 2.5 µg/mL (≈ 1.06 µM) |
| C[C@@H](NC(=O)[C@H](Cc1c[nH]c2ccccc12)NC(=O)[C@H](CCCNC(=N)N)NC(=O)[C@H](Cc1c[nH]c2ccccc12)NC(=O)[C@@H](C)NC(=O)[C@@H](CCCNC(=N)N)NC(=O)[C@H](N)Cc1ccc(O)cc1)C(=O)N[C@@H](Cc1c[nH]c2ccccc12)C(=O)N[C@@H](CCCNC(=N)N)C(=O)N[C@@H](Cc1c[nH]c2ccccc12)C(=O)N[C@@H](CCCNC(=N)N)C(N)=O [SEQ ID NO: 34, tyr-arg-ala-TRP-ARG-TRP-ala-TRP-ARG-TRP-ARG-CONH2] (H-[dY][dR][dA]WRW[dA]WRWR-NH2; N-terminus assumed) | – | – | – | – | – | MIC E. coli ([1]; Table 16, peptides with D-amino acids): 7.5 µg/mL; MIC S. aureus ([2]; Table 16): 5 µg/mL; MIC MRSA ([3]; Table 16): 2.5 µg/mL (≈ 1.48 µM) |
| PAWRKARRWAWRMKKLAA-OH [LFB 14-31 A2,6,10,17R4] | 30.0 µg/mL | 20.0 µg/mL | 13.1 µM | 8.8 µM | – | MIC E. coli ([1]; Table 8): 30 µg/mL; MIC S. aureus ([2]; Table 8): 20 µg/mL; EC 50 (toxicity, hemolysis) (human red blood cells): >1000 µg/mL |

The next lines start with results.

| MIC E. coli ([1]; Table 15) | MIC S. aureus ([2]; Table 15) | MIC E. coli ([1]; ATCC 25922) | MIC S. aureus ([2]; ATCC 25923) | Molecule | Meth A IC 50 [4] [µg/mL] | further results |
| --- | --- | --- | --- | --- | --- | --- |
| – | – | 15 µg/mL | 10 µg/mL | GIGKFWKKARKWGRWFWRILKKG [Tosmag W6,12,15,17] | 23 | – |
| – | – | 5 µg/mL | 2.5 µg/mL | KMASKAGKIAWKIAKVALKAL-NH2 (C-terminus assumed) [MSI 24 W11] | 24 | – |
| – | – | 8 µg/mL | 8 µg/mL | H-GIGKFLKKARKFGRAFVRILKKG-OH [Tosmag, reference compound] | 18 | – |
